Consider eight molecules from patent publication US8252930B2, “Azaindole derivatives with a combination of partial nicotinic acetyl-choline receptor agonism and dopamine reuptake inhibition” (Solvay Pharmaceuticals B.V., priority 2006, dated 2012).

pIC50: −log10 of the molar value. Where a name gives a salt, the structure may show the parent alone. Read-outs that look alike come from different tables or passages of the source.

Data set [1] addresses T1, [^3H]-dopamine uptake in rat striatal synaptosomes (Rattus norvegicus, UniProt P23977).
T1 construct: a crude synaptosomal fraction (P2) was prepared by homogenization and centrifugation; from tissue; host or cells: rat striatum, crude synaptosomal fraction (P2)
Kind of data set: In vitro [3H]-dopamine uptake in rat striatal synaptosomes. Type of data set: biochemical.
Experimental: Subsequently, [^3H]-dopamine (2×10^−7 M final concentration) was added and incubation was continued for 10 min. [^3H]-dopamine uptake was stopped by filtration and the synaptosomes were washed four times with phosphate buffered saline. The amount of [^3H]-dopamine in the synaptosomes was determined by Betaplate liquid scintillation counting. […] Inhibition of DA uptake was performed in duplicate.

T1 sequence (P23977 whole entry): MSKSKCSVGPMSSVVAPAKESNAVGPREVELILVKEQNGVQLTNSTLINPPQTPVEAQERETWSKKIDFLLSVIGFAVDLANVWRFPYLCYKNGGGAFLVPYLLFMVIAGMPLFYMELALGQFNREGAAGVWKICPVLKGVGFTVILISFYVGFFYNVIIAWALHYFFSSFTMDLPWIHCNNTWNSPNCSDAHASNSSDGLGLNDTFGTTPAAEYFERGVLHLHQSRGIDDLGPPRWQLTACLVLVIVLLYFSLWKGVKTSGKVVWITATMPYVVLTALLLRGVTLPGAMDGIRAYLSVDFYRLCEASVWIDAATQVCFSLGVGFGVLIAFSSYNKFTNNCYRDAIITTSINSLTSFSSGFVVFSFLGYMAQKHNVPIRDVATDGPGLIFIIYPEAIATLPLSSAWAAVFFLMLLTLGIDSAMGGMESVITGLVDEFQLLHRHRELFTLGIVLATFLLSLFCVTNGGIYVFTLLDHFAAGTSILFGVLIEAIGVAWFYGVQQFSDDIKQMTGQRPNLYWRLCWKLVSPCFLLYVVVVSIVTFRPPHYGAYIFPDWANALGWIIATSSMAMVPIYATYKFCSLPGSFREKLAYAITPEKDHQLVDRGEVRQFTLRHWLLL

Take `c1cnc2[nH]c(C3CCCNC3)cc2c1` (centres unmarked): the melting point (as a rule, the temperature of the solid-liquid transition) was 144 to 145 °C.

In turn, `CN1CCC[C@H]1Cc1cc2cccnc2[nH]1` registered a melting point of 130 to 131 °C.

In the case of `Clc1ccnc2[nH]c(C3CCCNC3)cc12` (centres unmarked) (as salt: HCl), the melting point was > 250 °C (dec.).

In the case of `C1=C(c2cc3cccnc3[nH]2)CNCC1` (as salt: HCl) [Compound 25, 2-(1,2,5,6-tetrahydro-pyridin-3-yl)-1H-pyrrolo[2,3-b]pyridine], the melting point was > 275 °C (dec.).

Regarding `c1cnc2[nH]cc(C[C@@H]3CCCN3)c2c1` (stereo in doubt) [Compound 97, (S)-3-Pyrrolidin-2-ylmethyl-1H-pyrrolo[2,3-b]pyridine], the IC50 in data set [1] (read-out: Functional activity re-uptake [^3H]-Dopamine pIC50 (converted)) was over 10 µM.

For `CN1CCC[C@H]1Cc1c[nH]c2ncccc12` (stereo in doubt) [Compound 99, (S)-3-(1-Methyl-pyrrolidin-2-ylmethyl)-1H-pyrrolo[2,3-b]pyridine], the pIC50 (as a rule, −log10 of the IC50, conventionally taken in molar units) in data set [1] is under 5.00.

Molecule `c1cnc2[nH]cc(C3CN4CCC3CC4)c2c1` (centres unmarked) [Compound 16, 3-(1H-Pyrrolo[2,3-b]pyridin-3-yl)-1-aza-bicyclo[2.2.2]octane] displayed a melting point of 185 °C.

With `c1cnc2[nH]c(C3CN4CCC3CC4)cc2c1` (centres unmarked) [Compound 21, 3-(1H-Pyrrolo[2,3-b]pyridin-2-yl)-1-aza-bicyclo[2.2.2]octane], the melting point amounted to 190 °C.
